Patent EP0365087A1, “Immunotoxins for the treatment or prophylaxis of auto-immune diseases” (priority 1988, dated 1990)
No end group written: not given here.

System: male Lewis-rats
Assay: DTH ear swelling after 65 kD-protein challenge in rats with adjuvant arthritis
Assay type: in vivo
Conditions: 0.01 mg/kg injections day 0-5 and day 8-12; 10 µg 65 kD-protein into ear day 22, swelling day 24; group average

## TAVVALELQ-OH [peptide I, Thr-Ala-Val-Val-Ala-Leu-Glu-Leu-Gln-OH]
  % swelling: 2.8 ± 3.4%
